# In US12433909B2, “Formulations of cyclic macromolecule-based nanoparticles encapsulating small molecules” (Board of Regents of The University of Texas System, priority 2019, dated 2025):
# Columns and labels:
# GL261 cells = experiment: in vitro GL261 cell viability assay (CellTiter-Glo); assay type: cell-based, murine; conditions: 72 hours of incubation, CDN-4 21% drug loaded
# Description: For IC50 experiments, GL261 cells were seeded at […] into 96 well plates containing Dulbecco's Modified Eagle Medium (DMEM) and 10% Fetal Bovine Serum (FBS). Cells were given 4 hours to adhere prior to drug treatments. Free panobinostat, drug-loaded and blank CDN-4 (21% drug loaded) were dispersed in 2.5% DMSO in cell culture media at 10 mg/mL drug concentration. Equivalent doses were added to the 96 well plates at 16 serial dilutions with concentrations from 0-70 μM and incubated at 37° C. with 5% CO2 for 72 hours. Cell viability was determined with an IC50 value obtained from a CellTiter-Glo Luminescence assay and calculated using GraphPad Prism (San Diego, CA USA). For uptake experiments, GL261 cells were seeded at 90,000 cells/1 mL into 48 well plates containing DMEM and 10% FBS. Panobinostat loaded CDN-4 nanoparticles (250 ug) were incubated with cells for 48 hours, after which cells were thoroughly washed, fixed, and counterstained with DAPI. Images were collected on an upright Nilkon Ti2 microscope.
# [1] = experimental drug loading in CDN nanoparticles, quantified by absorbance; assay type: physicochemical; conditions: for drug loading in CDNs 1-3: theoretical loading of 10% (w/w)
# Description: Panobinostat-loaded nanoparticles were formulated by doping a given concentration of the drug with CDN in 2.5 vol % DMSO-aqueous medium. Panobinostat was added at different theoretical loadings, and the amount of panobinostat incorporated into the network after thorough washing was quantified by absorbance.
# An aqueous dispersion (2.0 mL) of blank CDN nanoparticles (10 mg/mL) was doped with DMSO (50 uL) solution of panobinostat (40 mg/mL; 10% theoretical loading). The aqueous dispersion was left to agitate for 18 h, and subjected to concentration via ultrafiltration through Amicon Ultra-15 centrifugal filters (3 kDa MWCO, […]) for 4, 20 mins spins at 5000 RCF. Aliquots were frozen and lyophilized for later studies.
# Drug loading was quantified by absorbance ([…] for quisinostat, panobinostat and dacinostat; 285 nm for givinostat; 365 nm for camptothecin; 550 nm for Nile Red) on a Tecan plate reader. Lyophilized nanoparticles were dissolved at 5 mg/ml in DMSO. Samples were plated in triplicate ([…], nanoparticles and 10 μL DMSO per well) in a clear, flat bottom 96-well assay plate. A control curve was constructed in technical triplicate by adding 40 μL blank nanoparticles per well and spiking with 10 μL of known drug concentration in DMSO. Experimental drug loading was calculated as mass of drug/mass of nanoparticles (w/w %). 40 μL of bortezomib loaded nanoparticles (5 mg/ml aqueous solution) were extracted with 100 μL of ethylacetate. The ethylacetate layer was collected and dried under nitrogen. The contents were dissolved in 40 μL of DMSO and plated in triplicate. A control curve was constructed in technical triplicate by spiking with 10 μL of known drug concentration in DMSO. Absorbance was measured at 285 nm. Experimental drug loading was calculated as mass of drug/mass of nanoparticles (w/w %).
# [2] = background statement; cited from earlier work
# [3] = mouse, in vivo
# Description: All animal procedures were approved by the Institutional Animal Care and Use Committee at University of Texas Health Science at Houston in accordance with all relevant guidelines. Healthy, female NSG mice were used for in vivo experiments. CDN nanoparticles were administered by direct infusion into the cisternal magna. Briefly, mice were anesthetized with isoflurane (2%) and mounted on a stereotaxic frame (Kopf Instruments, Tujunga, CA, USA). With the head tilted forward, an incision was made across the back of the neck and muscles were gentle retracted to expose the atlanto-occipal membrane. A Hamilton syringe (29 gauge needle, 30° bevel tip) in a 2 uL volume delivered over 1 minute at an injection dept of 1 mm. The needle was left in place for an additional 2 minutes to prevent backflow. All animals received a subcutaneous injection of buprenorphine (1 mg/kg) prior to surgery, and other analgesics to control pain. For MTD studies, panobinostat loaded CDN-4 nanoparticles were administered at increasing concentrations. […] For pharmacokinetic studies, mice received CDN-4 nanoparticles at a dose of 560 ug panobinostat and euthanized at specified time points (1, 4, 8, 24, and 48 hours after nanoparticle administration, n=5 mice per time point). One mouse in the 24 hour time point died during surgery, leaving n=4 for that experimental group. […]
compound,measurement,setting,value
Cc1[nH]c2ccccc2c1CCNCc1ccc(/C=C/C(=O)NO)cc1 [non-CDN-formulated Pb],IC50,GL261 cells,230 nM
Nc1ccn([C@@H]2O[C@H](CO)[C@@H](O)[C@@H]2O)c(=O)n1 [cytarabine],experimental loading with all the CDNs,"[1]; control hydrophilic drug, data not shown",poor experimental loading
Cn1cc(CNCC2CCN(c3ncc(C(=O)NO)cn3)CC2)c2ccccc21 [quisinostat],drug loading in CDNs 1-3,[1],loaded particularly well
O=C(/C=C/c1ccc(CN(CCO)CCc2c[nH]c3ccccc23)cc1)NO [dacinostat],drug loading in CDNs 1-3,[1],loaded particularly well
CCN(CC)Cc1ccc2cc(COC(=O)Nc3ccc(C(=O)NO)cc3)ccc2c1 [givinostat],drug loading in CDNs 1-3,[1],loaded particularly well
CC(C)C[C@H](NC(=O)[C@H](Cc1ccccc1)NC(=O)c1cnccn1)B(O)O [bortezomib],drug loading in CDNs 1-3,[1],loaded particularly well
Cc1[nH]c2ccccc2c1CCNCc1ccc(/C=C/C(=O)NO)cc1 [panobinostat],water solubility,[2],poorly water soluble
same,IC50,"GL261 cells; Mus musculus, GL261",170 nM
same,panobinostat in plasma,[3],undetectable
